The target of experiment [1] is T1, c-Jun N-terminal kinase, JNK (Homo sapiens) (UniProt P45983+P53779+P45984). The experiment in a line: Induction of JNK-mediated CHOP expression in human H1299 cells at 0.1 to 30 uM after 24 hrs by Western blot analysis. It counts as cell-based. Background: In western blotting, separated proteins are transferred to a membrane and probed.
For experiment [2], the system named is H1299. The experiment in a line: Inhibition of Akt phosphorylation on human H1299 cells after 24 hrs by Western blot analysis. It counts as cell-based.
Experiment [3] concerns H1299. The experiment in a line: Inhibition of Akt in human H1299 cells assessed as decrease in survivin expression after 24 hrs by Western blot analysis. The class given is cell-based.
Experiment [4] is described as follows: Down regulation of cIAP2 expression in human H1299 cells at 0.1 to 30 uM after 24 hrs by Western blot analysis. The settings on record: NCI-H1299. It counts as functional, cell-based.
Experiment [5] in a line: Down regulation of cIAP2 expression in human H1299 cells at 0.1 to 30 uM after 24 hrs by Western blot analysis in presence of 100 ug/ml TRAIL and PI3K inhibitor LY294002. The class given is functional, cell-based. The settings on record: NCI-H1299.
The subject of experiment [6] is NCI-H1299. The experiment in a line: Induction of DR5 expression in human H1299 cells at 0.1 to 30 uM after 24 hrs by Western blot analysis. The class given is functional, cell-based.
The subject of experiment [7] is NCI-H1299. The experiment in a line: Induction of apoptosis in human H1299 cells assessed as apoptotic cells at 10 uM after 48 hrs by annexinV/propidium iodide staining-based flow cytometric analysis in presence of 100 ug/ml TRAIL (reference value: 1.35%). The class given is functional. Background: A flow cytometer gives signals particle by particle.
Experiment [8] can be described thus: Down regulation of AKT-mediated survivin expression in human H1299 cells at 5 to 10 uM after 24 hrs by Western blot analysis. The class given is cell-based.
For experiment [9], the target named is T1, c-Jun N-terminal kinase, JNK (Homo sapiens). The experiment in a line: Induction of JNK-mediated CHOP protein expression in human H1299 cells after 24 hrs by Western blot analysis. It counts as cell-based.
A short description of experiment [10]: Down regulation of XIAP expression in human H1299 cells at 5 to 10 uM after 24 hrs by Western blot analysis in presence of 100 ug/ml TRAIL. The class given is functional, cell-based. The settings on record: NCI-H1299.
Experiment [11] concerns the target T1, c-Jun N-terminal kinase, JNK (Homo sapiens). The experiment in a line: Induction of JNK-mediated c-Jun phosphorylation in human H1299 cells at 10 uM for 30 mins cotreated with TRAIL by Western blot analysis pretreated with 10 uM JNK inhibitor SP600125 for 1 hr. It counts as cell-based.
Experiment [12] deals with H1299. The experiment in a line: Inhibition of Akt phosphorylation in human H1299 cells at 5 to 10 uM after 24 hrs by Western blot analysis in presence of 100 ug/ml TRAIL. It counts as cell-based.
Experiment [13] can be described thus: Down regulation of XIAP expression in human H1299 cells at 0.1 to 30 uM after 24 hrs by Western blot analysis in presence of 100 ug/ml TRAIL and PI3K inhibitor LY294002. It counts as functional, cell-based. The settings on record: NCI-H1299.
Experiment [14] deals with NCI-H1299. The experiment in a line: Induction of apoptosis in human H1299 cells assessed as apoptotic cells at 5 uM after 48 hrs by annexinV/propidium iodide staining-based flow cytometric analysis in presence of 100 ug/ml TRAIL (reference value: 1.35%). It counts as functional.
A short description of experiment [15]: Down regulation of Bcl-Xl expression in human H1299 cells at 10 uM after 24 hrs by Western blot analysis in presence of 100 ug/ml TRAIL. The class given is functional, cell-based. The settings on record: NCI-H1299.
Experiment [16] in a line: Down regulation of XIAP expression in human H1299 cells at 0.1 to 30 uM after 24 hrs by Western blot analysis. It counts as functional, cell-based. The settings on record: NCI-H1299.
A short description of experiment [17]: Down regulation of XIAP expression in human H1299 cells at 5 to 10 uM after 24 hrs by Western blot analysis. The class given is functional, cell-based. The settings on record: NCI-H1299.
The test system of experiment [18] is NCI-H1299. The experiment in a line: Induction of apoptosis in human H1299 cells assessed as apoptotic cells at 5 uM after 48 hrs by annexinV/propidium iodide staining-based flow cytometric analysis (reference value: 1.35%). It counts as functional.
Experiment [19] deals with H1299. The experiment in a line: Inhibition of Akt phosphorylation in human H1299 cells at 5 to 10 uM after 24 hrs by Western blot analysis. It counts as cell-based.
The nature of experiment [20]: Down regulation of cIAP1 expression in human H1299 cells at 10 uM after 24 hrs by Western blot analysis in presence of 100 ug/ml TRAIL. The class given is functional, cell-based. The settings on record: NCI-H1299.
A short description of experiment [21]: Down regulation of cIAP2 expression in human H1299 cells at 10 uM after 24 hrs by Western blot analysis in presence of 100 ug/ml TRAIL. The class given is functional, cell-based. The settings on record: NCI-H1299.
For experiment [22], the system named is NCI-H1299. The experiment in a line: Induction of TRAIL-mediated apoptosis in human H1299 cells assessed as caspase 8 activation at 5 to 10 uM after 24 hrs by fluorometric assay in presence of pan-caspase inhibitor Z-VAD-FMK. It counts as functional, cell-based.
The subject of experiment [23] is NCI-H1299. The experiment in a line: Induction of apoptosis in human H1299 cells assessed as apoptotic cells at 10 uM after 48 hrs by annexinV/propidium iodide staining-based flow cytometric analysis (reference value: 1.35%). The class given is functional.
Experiment [24] relates to NCI-H1299. The experiment in a line: Induction of TRAIL-mediated apoptosis in human H1299 cells assessed as caspase 8 activation at 5 to 10 uM after 24 hrs by fluorometric assay. It counts as functional, cell-based.
Experiment [25] has as its target T1, c-Jun N-terminal kinase, JNK (Homo sapiens). The experiment in a line: Induction of JNK-mediated c-Jun phosphorylation in human H1299 cells at 5 to 10 uM after 24 hrs by Western blot analysis. It counts as cell-based.
Experiment [26] is described as follows: Down regulation of AKT-mediated survivin expression in human H1299 cells at 5 to 10 uM after 24 hrs by Western blot analysis in presence of 100 ug/ml TRAIL. It counts as cell-based.
Experiment [27] concerns the target T1, c-Jun N-terminal kinase, JNK (Homo sapiens). The experiment in a line: Induction of JNK-mediated c-Jun phosphorylation in human H1299 cells at 5 to 10 uM after 24 hrs by Western blot analysis in presence of 100 ug/ml TRAIL. The class given is cell-based.
Experiment [28] is described as follows: Upregulation of CHOP in human H1299 cells at 10 uM after 24 hrs by Western blot analysis in presence of 100 ug/ml TRAIL and pretreated with 10 uM JNK inhibition SP600125. It counts as functional, cell-based. The settings on record: NCI-H1299.
Experiment [29] has as its system NCI-H1299. The experiment in a line: Induction of DR5 protein expression in human H1299 cells after 24 hrs by Western blot analysis. It counts as functional, cell-based.

Each structure is given as a SMILES string. Calls of active or inactive are those of the source. The rule behind the calls is not given here.

For `O=c1cc(N2CCOCC2)oc2c(-c3ccccc3)cccc12`, the result (in [1]; in the experiment with NCI-H1299 [6]) was inactive. The inhibition entry in the experiment on H1299 [2] and in the experiment on H1299 [3] was “Dose-dependent effect” each time. Also, the outcome in experiment [4] and in experiment [5] was Active.

For `Cc1ccc(Cl)cc1NC(=S)Nc1ccc(-n2nccc2C(F)(F)F)cc1`, the Activity with NCI-H1299 [7] is 39.4%; in the experiment on NCI-H1299 [14] it was 6.59%; in the experiment on NCI-H1299 [18] it was 1.52%; in the experiment on NCI-H1299 [23], 3.25%. The outcome in experiment [8], in [9], in experiment [10], in experiment [11], in [13] and in [15] was Active. Further, the result (in [16]; in experiment [17]; in experiment [20]; in experiment [21]; in the experiment on NCI-H1299 [24]; in experiment [25]) was Active. Further, the result (in [26]; in experiment [27]; with NCI-H1299 [29]) was Active. The inhibition result with H1299 [12] and in the experiment on H1299 [19] was “Active” throughout. The outcome (in the experiment with NCI-H1299 [22]; in experiment [28]) was inactive.

(Values after ChEMBL document CHEMBL2034916, “Thiourea compound AW00178 sensitizes human H1299 lung carcinoma cells to TRAIL-mediated apoptosis” (2012).)
